Results on 27 compounds are retold here after patent publication US20150051202A1, “TRIAZOLOPYRAZINE DERIVATIVES” (Merck Patent GmbH, priority 2012, published 2015).

pIC50: −log10 of the molar value.

The target in one assay is T1, SYK (Homo sapiens, UniProt P43405).
T1 construct: purchased BPS Bioscience, CA, USA
The assay can be described thus: SYK enzyme assay (Flash plate assay / Caliper mobility shift assay). Type of assay: biochemical. In a few lines:
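Flashplate: 2.5 nM SYK, 400 nM biotinylated peptide and 10 μM ATP with 33P-ATP, pH 7.5, 1 h at 30 °C, EDTA stop, radioactivity read, background with 0.1 μM staurosporine. Caliper: 90 min at 25 °C in HEPES pH 7.5, 1 mM MgCl2, 1 mM DTT, mobility-shift percent conversion of fluorescent peptide. IC50 from dose-response in both.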

The next assay addresses GCN2 (Homo sapiens, UniProt Q9P2K8). The assay can be described thus: GCN2 enzyme assay (TR-FRET Lanthascreen, GFP-eIF2alpha substrate). The assay is classed as biochemical. In a few lines: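 GCN2 (30 nM) incubated at room temperature with 10 μM ATP and 80 nM GFP-eIF2alpha in 50 mM Hepes pH 7.0, 10 mM MgCl2, 5 mM MnCl2, 2 mM DTT, 0.1% BSA, 1% DMSO. Reaction stopped with EDTA; phospho-eIF2alpha detected by antibody TR-FRET, excitation 340 nm.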

[1] abbreviates: 100% corresponds to zero effect, −50% corresponds to IC50.

Sequence of GCN2 (Q9P2K8 whole entry): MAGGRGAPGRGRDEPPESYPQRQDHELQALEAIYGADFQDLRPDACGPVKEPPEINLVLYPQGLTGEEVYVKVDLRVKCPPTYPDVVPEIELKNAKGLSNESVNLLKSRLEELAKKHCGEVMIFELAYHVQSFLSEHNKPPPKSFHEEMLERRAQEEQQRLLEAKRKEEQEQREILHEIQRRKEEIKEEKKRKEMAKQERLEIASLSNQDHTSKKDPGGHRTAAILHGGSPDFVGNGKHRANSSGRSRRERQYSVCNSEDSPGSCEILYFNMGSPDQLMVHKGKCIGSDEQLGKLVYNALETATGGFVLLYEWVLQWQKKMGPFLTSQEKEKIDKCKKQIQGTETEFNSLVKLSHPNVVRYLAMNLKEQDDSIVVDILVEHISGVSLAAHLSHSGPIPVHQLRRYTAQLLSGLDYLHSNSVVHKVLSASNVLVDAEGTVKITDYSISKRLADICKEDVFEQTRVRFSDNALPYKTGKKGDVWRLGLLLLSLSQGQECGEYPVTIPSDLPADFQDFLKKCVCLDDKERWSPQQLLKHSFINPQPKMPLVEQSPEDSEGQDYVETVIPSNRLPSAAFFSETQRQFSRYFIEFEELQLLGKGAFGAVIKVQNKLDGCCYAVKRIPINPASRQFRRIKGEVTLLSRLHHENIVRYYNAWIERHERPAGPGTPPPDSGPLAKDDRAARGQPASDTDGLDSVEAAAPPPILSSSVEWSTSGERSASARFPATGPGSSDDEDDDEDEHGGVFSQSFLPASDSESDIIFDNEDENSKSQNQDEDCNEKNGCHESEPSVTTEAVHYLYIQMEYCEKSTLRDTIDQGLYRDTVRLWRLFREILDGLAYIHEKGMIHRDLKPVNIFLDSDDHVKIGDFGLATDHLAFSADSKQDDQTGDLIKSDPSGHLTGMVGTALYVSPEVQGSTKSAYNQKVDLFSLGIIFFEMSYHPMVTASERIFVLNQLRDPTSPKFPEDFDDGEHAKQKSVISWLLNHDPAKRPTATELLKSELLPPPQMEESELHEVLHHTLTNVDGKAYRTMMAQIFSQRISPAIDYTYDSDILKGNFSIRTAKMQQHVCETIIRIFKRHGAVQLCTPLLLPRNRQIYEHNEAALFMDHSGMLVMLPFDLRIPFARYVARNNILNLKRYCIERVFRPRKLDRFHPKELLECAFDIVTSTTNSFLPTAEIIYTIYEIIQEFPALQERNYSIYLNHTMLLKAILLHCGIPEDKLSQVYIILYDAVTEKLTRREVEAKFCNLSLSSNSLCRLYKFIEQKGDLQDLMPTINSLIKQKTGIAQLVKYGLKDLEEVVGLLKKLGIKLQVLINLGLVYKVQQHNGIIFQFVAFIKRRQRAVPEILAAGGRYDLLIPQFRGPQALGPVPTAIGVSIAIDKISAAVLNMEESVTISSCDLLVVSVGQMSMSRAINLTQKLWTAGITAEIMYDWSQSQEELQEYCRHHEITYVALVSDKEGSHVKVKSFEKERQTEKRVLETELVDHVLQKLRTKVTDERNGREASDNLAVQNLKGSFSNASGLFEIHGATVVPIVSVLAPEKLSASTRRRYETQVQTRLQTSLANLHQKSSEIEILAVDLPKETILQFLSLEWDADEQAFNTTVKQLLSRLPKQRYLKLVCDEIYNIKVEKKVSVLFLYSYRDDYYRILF

As to `CN1C(=O)Cc2cc(Nc3nc4cncc(-c5cnn(CCN6CCOCC6)c5)n4n3)ccc21` [Compound A52, 1-methyl-5-{5-[1-(2-morpholin-4-yl-ethyl)-1H-pyrazol-4-yl]-[1,2,4]triazolo[1,5-a]pyrazin-2-ylamino}-1,3-dihydro-indol-2-one], at SYK (setting [1]), the “SYK (enzyme assay) % at 3 μM” value is recorded as −32@3%. Also, at GCN2, the pIC50 was 5.30 to 6.00.
For `CN1CCN(c2ccc(Nc3nc4cncc(Nc5cnn(C)c5)n4n3)cc2)CC1` [Compound A53, N2-[4-(4-methyl-piperazin-1-yl)-phenyl]-N5-(1-methyl-1H-pyrazol-4-yl)-[1,2,4] triazolo[1,5-a]pyrazine-2,5-diamine], the “SYK (enzyme assay) % at 3 μM” value on SYK (setting [1]) is −23@3%. The pIC50 against GCN2 was 5.30 to 6.00.
Turning to `Cc1ccc(-c2cncc3nc(Nc4ccc(N5CCOCC5)cc4)nn23)o1` [Compound A55, [5-(5-methyl-furan-2-yl)-[1,2,4]triazolo[1,5-a]pyrazin-2-yl]-(4-morpholin-4-yl-phenyl)-amine], the pIC50 on SYK and against GCN2 was more than 6.00 throughout.
In the case of `c1cc(N2CCOCC2)ccc1Nc1nc2cncc(-c3cnn(CCN4CCOCC4)c3)n2n1` [Compound A56, {5-[1-(2-morpholin-4-yl-ethyl)-1H-pyrazol-4-yl]-[1,2,4]triazolo[1,5-a]pyrazin-2-yl}-(4-morpholin-4-yl-phenyl)-amine], the pIC50 on SYK and against GCN2 was 5.30 to 6.00 throughout.
For the compound `Cn1cc(-c2cncc3nc(Nc4cccc(C#N)c4)nn23)cn1` [Compound A57, 3-[5-(1-methyl-1H-pyrazol-4-yl)-[1,2,4]triazolo[1,5-a]pyrazin-2-ylamino]-benzonitrile], the pIC50 was 5.00 to 5.30 at SYK and 5.30 to 6.00 against GCN2.
Turning to `O=C1Cc2cc(Nc3nc4cncc(-c5ccc(CN6CCOCC6)s5)n4n3)ccc2N1` [Compound A58, 5-[5-(5-morpholin-4-ylmethyl-thiophen-2-yl)-[1,2,4]triazolo[1,5-a]pyrazin-2-ylamino]-1,3-dihydro-indol-2-one], on SYK (setting [1]), the “SYK (enzyme assay) % at 3 μM” value is reported as −34@3%. The pIC50 against GCN2 is more than 6.00.
For `Cn1cc(-c2cncc3nc(Nc4ccc5c(c4)OCCO5)nn23)cn1` [Compound A59, (2,3-dihydro-benzo[1,4]dioxin-6-yl)-[5-(1-methyl-1H-pyrazol-4-yl)-[1,2,4]triazolo[1,5-a]pyrazin-2-yl]-amine], the pIC50 on SYK is 5.30 to 6.00; on GCN2, more than 6.00.
In the case of `Cn1cc(-c2cncc3nc(Nc4ccc(-c5ccncc5)cc4)nn23)cn1` [Compound A60, [5-(1-methyl-1H-pyrazol-4-yl)-[1,2,4]triazolo[1,5-a]pyrazin-2-yl]-(4-pyridin-4-yl-phenyl)-amine], the pIC50 is more than 6.00 at SYK and 5.30 to 6.00 at GCN2.
For the compound `Cn1cc(-c2cncc3nc(Nc4ccc(CN5CCOCC5)cc4)nn23)cn1` [Compound A61, [5-(1-methyl-1H-pyrazol-4-yl)-[1,2,4]triazolo[1,5-a]pyrazin-2-yl]-(4-morpholin-4-ylmethyl-phenyl)-amine], the pIC50 was 5.30 to 6.00 at SYK and more than 6.00 on GCN2.
In the case of `c1cc(N2CCOCC2)ccc1Nc1nc2cncc(-c3ccc(CN4CCOCC4)s3)n2n1` [Compound A62, [5-(5-morpholin-4-ylmethyl-thiophen-2-yl)-[1,2,4]triazolo[1,5-a]pyrazin-2-yl]-(4-morpholin-4-yl-phenyl)-amine], the “SYK (enzyme assay) % at 3 μM” value at SYK (setting [1]) is reported as −5@3%. The same compound showed a pIC50 against GCN2 of more than 6.00.
As to `N#Cc1cc(-c2cncc3nc(Nc4ccc(N5CCOCC5)cc4)nn23)ccc1OC1CCOCC1` [Compound A63, 5-[2-(4-morpholin-4-yl-phenylamino)-[1,2,4]triazolo[1,5-a]pyrazin-5-yl]-2-(tetrahydro-pyran-4-yloxy)-benzonitrile], on SYK (setting [1]), the “SYK (enzyme assay) % at 3 μM” value is −30@3%. For the same compound, the pIC50 at GCN2 was 5.30 to 6.00.
Regarding `Cc1cc(Nc2nc3cncc(-c4cnn(C)c4)n3n2)ccc1OC(F)(F)F` [Compound A64, [5-(1-methyl-1H-pyrazol-4-yl)-[1,2,4]triazolo[1,5-a]pyrazin-2-yl]-(3-methyl-4-trifluoromethoxy-phenyl)-amine], the pIC50 at SYK is 5.30 to 6.00; against GCN2, more than 6.00.
Turning to `Cc1cc(Nc2nc3cncc(-c4cnn(C)c4)n3n2)ccc1NC(=O)C1CCC1` [Compound A65, cyclobutanecarboxylic acid {2-methyl-4-[5-(1-methyl-1H-pyrazol-4-yl)-[1,2,4]triazolo[1,5-a]pyrazin-2-ylamino]-phenyl}-amide], the pIC50 at SYK is 5.00 to 5.30; against GCN2 it was more than 6.00.
Regarding `Cn1cc(-c2cncc3nc(Nc4ccc(C(=O)N5CCOCC5)cc4)nn23)cn1` [Compound A66, {4-[5-(1-methyl-1H-pyrazol-4-yl)-[1,2,4]triazolo[1,5-a]pyrazin-2-ylamino]-phenyl}-morpholin-4-yl-methanone], the pIC50 was 5.30 to 6.00 at SYK and more than 6.00 on GCN2.
In the case of `COc1cc(Nc2nc3cncc(-c4cnn(C)c4)n3n2)ccc1N1CCN(C)CC1` [Compound A67, [3-methoxy-4-(4-methyl-piperazin-1-yl)-phenyl]-[5-(1-methyl-1H-pyrazol-4-yl)-[1,2,4]triazolo[1,5-a]pyrazin-2-yl]-amine], the pIC50 is 5.30 to 6.00 on SYK and more than 6.00 against GCN2.
With `Cc1cc(Nc2nc3cncc(-c4cnn(C)c4)n3n2)ccc1CN1CCOCC1` [Compound A68, (3-methyl-4-morpholin-4-ylmethyl-phenyl)-[5-(1-methyl-1H-pyrazol-4-yl)-[1,2,4]triazolo[1,5-a]pyrazin-2-yl]-amine], the figures for the pIC50 at SYK and against GCN2 were 5.30 to 6.00 and more than 6.00, respectively.
As to `Cc1cc(Nc2nc3cncc(-c4cnn(C)c4)n3n2)ccc1C(=O)NCC1CC1` [Compound A69, N-cyclopropylmethyl-2-methyl-4-[5-(1-methyl-1H-pyrazol-4-yl)-[1,2,4]triazolo[1,5-a]pyrazin-2-ylamino]-benzamide], the pIC50 at SYK was 5.30 to 6.00; at GCN2, more than 6.00.
For `COc1cc(Nc2nc3cncc(-c4cnn(C)c4)n3n2)ccc1C(=O)NCC1CC1` [Compound A70, N-cyclopropylmethyl-2-methoxy-4-[5-(1-methyl-1H-pyrazol-4-yl)-[1,2,4]triazolo[1,5-a]pyrazin-2-ylamino]-benzamide], the “SYK (enzyme assay) % at 0.3 μM” value at SYK (at 0.3 μM, 100% corresponds to zero effect, −50% corresponds to IC50) is recorded as −12@0.3%. On GCN2, the pIC50 was more than 6.00.
For `Cc1cc(Nc2nc3cncc(-c4cnn(C)c4)n3n2)ccc1C(=O)NC1CC1` [Compound A71, N-cyclopropyl-2-methyl-4-[5-(1-methyl-1H-pyrazol-4-yl)-[1,2,4]triazolo[1,5-a]pyrazin-2-ylamino]-benzamide], the pIC50 at SYK is 5.30 to 6.00; on GCN2, more than 6.00.
Turning to `COc1cc(Nc2nc3cncc(-c4cnn(C)c4)n3n2)ccc1C(=O)NC1CC1` [Compound A72, N-cyclopropyl-2-methoxy-4-[5-(1-methyl-1H-pyrazol-4-yl)-[1,2,4]triazolo[1,5-a]pyrazin-2-ylamino]-benzamide], the pIC50 on SYK was 5.00 to 5.30; against GCN2, more than 6.00.
Consider `Cc1cc(Nc2nc3cncc(-c4cnn(C)c4)n3n2)ccc1C(=O)N1CCOCC1` [Compound A73, {2-methyl-4-[5-(1-methyl-1H-pyrazol-4-yl)-[1,2,4]triazolo[1,5-a]pyrazin-2-ylamino]-phenyl}-morpholin-4-yl-methanone], for which the results for the pIC50 on SYK and against GCN2 were 5.30 to 6.00 and more than 6.00, respectively.
Consider `Cn1cc(-c2cncc3nc(NC(=O)C4CCNCC4)nn23)cn1` [Compound A74, piperidine-4-carboxylic acid [5-(1-methyl-1H-pyrazol-4-yl)-[1,2,4]triazolo[1,5-a]pyrazin-2-yl]-amide], for which the “SYK (enzyme assay) % at 3 μM” value on SYK (setting [1]) is 4@3%. Also, the pIC50 against GCN2 was 5.00 to 5.30.
The corresponding values for `COc1cc(Nc2nc3cncc(-c4cnn(CCN5CCOCC5)c4)n3n2)ccc1N1CCN(C)CC1` [Compound A75, [3-methoxy-4-(4-methyl-piperazin-1-yl)-phenyl]-{5-[1-(2-morpholin-4-yl-ethyl)-1H-pyrazol-4-yl]-[1,2,4]triazolo[1,5-a]pyrazin-2-yl}-amine] are −21@3% and more than 6.00.
With `COc1cc(Nc2nc3cncc(-c4cnn(CCC(C)C)c4)n3n2)ccc1N1CCN(C)CC1` [Compound A76, [3-methoxy-4-(4-methyl-piperazin-1-yl)-phenyl]-{5-[1-(3-methyl-butyl)-1H-pyrazol-4-yl]-[1,2,4]triazolo[1,5-a]pyrazin-2-yl}-amine], the pIC50 on SYK is 5.30 to 6.00; on GCN2, more than 6.00.
As to `COc1cc(Nc2nc3cncc(-c4cnn(C5CCOCC5)c4)n3n2)ccc1N1CCN(C)CC1` [Compound A77, [3-methoxy-4-(4-methyl-piperazin-1-yl)-phenyl]-{5-[1-(tetrahydro-pyran-4-yl)-1H-pyrazol-4-yl]-[1,2,4]triazolo[1,5-a]pyrazin-2-yl}-amine], the values for the pIC50 on SYK and at GCN2 were 5.30 to 6.00 and more than 6.00, respectively.
The corresponding values for `COc1cc(Nc2nc3cncc(-c4cnn(C)c4)n3n2)ccc1CN1CCOCC1` [Compound A78, (3-methoxy-4-morpholin-4-ylmethyl-phenyl)-[5-(1-methyl-1H-pyrazol-4-yl)-[1,2,4]triazolo[1,5-a]pyrazin-2-yl]-amine] are 5.30 to 6.00 and more than 6.00.
With `COc1cc(N2CCN(C)CC2)ccc1Nc1nc2cncc(-c3cnn(C)c3)n2n1` [Compound A79, [2-methoxy-4-(4-methyl-piperazin-1-yl)-phenyl]-[5-(1-methyl-1H-pyrazol-4-yl)-[1,2,4]triazolo[1,5-a]pyrazin-2-yl]-amine], the “SYK (enzyme assay) % at 3 μM” value on SYK (setting [1]) is listed as −9@3%. The compound also showed a pIC50 against GCN2 of 5.00 to 5.30.
